We go through 2 compounds from PMC5063977 (The Journal of Biological Chemistry, 2016).

Common to all, as to assay type: cell-based
In one test the target is T1, RAMP3-CLR (AM2 receptor) (Homo sapiens, UniProt O60896+Q16602).
T1 construct: FLAG; expressed in transfected cells; host or cells: HEK-293 or HEK-293S cells, transient transfection, 1:1 RAMP:CLR
The experiment in a line: S. cerevisiae growth assay, GPA1/Gαi chimera, RAMP3 + CLR. Conditions: percentage of yeast strain MMY11 (lacking GPA1); 20 h; mean ± S.E., n = 7. On the procedure: FIGURE 3. […] Reporter gene activity was determined following 20 h of stimulation.
General yeast procedures were performed as described previously ([22], [24]). The human CLR was introduced into yeast cells under the control of the PGK promoter using a plasmid containing ura3 (pDT-PGK). The three human RAMPs were introduced into yeast under the control of the GAPDH promoter using plasmids containing leu2 (p425-GPD) ([25]). S. cerevisiae dual reporter strains expressing chimeras of yeast GPA1(1–467) (GPA1/Gα) with the five C-terminal amino acids of […] human G proteins representing Gαs, Gα16, Gαq, Gαo, Gαi1/2, Gαi3, Gαz, Gα12, Gα13, and Gα14 (MMY84–MMY93) were used in this study ([52]). […] Receptor signaling was measured using the yeast growth assay as described previously ([24]). […] A fluorescein signal was detected as an increase in fluorescence (excitation wavelength = 485 nm, emission wavelength = 535 nm) as a measure of growth. Different concentrations of ligand (0.01 nM–100 μM) were assayed using 96-well plates, and fluorescence was detected using a Tecan Infinite M200 microplate reader (Tecan Ultra Evolution, Reading, UK) or a Mithras LB 940 microplate reader (Berthold Technologies, Harpenden, UK) for 20 h. […]

The target in a further test is T2, RAMP2-CLR (AM1 receptor) (Homo sapiens, UniProt O60895+Q16602).
T2 construct: FLAG; expressed in transfected cells; host or cells: HEK-293 or HEK-293S cells, transient transfection, 1:1 RAMP:CLR
Nature of the test: cAMP accumulation, HEK-293 cells, RAMP2 + CLR. The following applies: mean ± S.E. As to the method: (§1) HEK-293 cells were transfected with FuGENE 6 (Roche Applied Science) in accordance with the manufacturer's instructions using a 1:3 (w:v) DNA:FuGENE ratio and a 1:1 ratio of RAMP to CLR. […] The transfected cell lines were grown for 24–48 h prior to assaying.
(§2) The transfected HEK-293 cells were washed in PBS, resuspended in stimulation buffer (PBS containing 0.1% BSA and 0.5 mM IBMX), and seeded at 2000 cells/well in 384-well white Optiplates. Ligands were added in the range of 1 pM to 1 mM, and cAMP accumulation was measured after 30 min of stimulation using a LANCE® cAMP detection kit (PerkinElmer Life Sciences). […] Plates were read using a Mithras LB 940 multimode microplate reader (Berthold Technologies). […] Values were converted to concentration using a cAMP standard curve performed in parallel.
Data analysis for cAMP assays was performed in GraphPad Prism 6.0f (San Diego, CA). Data were fitted to obtain concentration-response curves using either the three-parameter logistic equation (for pEC50 values) or the operational model for partial agonism ([34]) to obtain values of efficacy (log τ) and the equilibrium dissociation constant (log Ka). These values were then used to quantify signaling bias as change in log (τ/Ka) relative to the natural cognate ligand for the respective receptor ([41]). […] Statistical differences were analyzed using one-way ANOVA or Student's t test as appropriate with post hoc Bonferroni's or Dunnett's multiple comparisons, and p < 0.05 was considered significant. […] For RT-PCR, normalization to the internal standard GAPDH was performed to reduce variance and enable a comparison between different cell lines. To quantitate the ligand-dependent response in the yeast system, a strain lacking GPA1 (MMY11), grown in rich medium, was used as a standard ([72]). As GPA1 is not present in this strain, the Gβγ subunits are unregulated and free to signal, allowing us to determine the maximal response of our system. […] For the mammalian cell-based assays, data analysis was carried out as for the yeast curves. […]

The target of test [1] is T3, RAMP1-CLR (CGRP receptor) (Homo sapiens, UniProt O60894+Q16602).
T3 construct: FLAG; expressed in transfected cells; host or cells: HEK-293 or HEK-293S cells, transient transfection, 1:1 RAMP:CLR
Nature of the test: cAMP accumulation, HEK-293S cells, RAMP1 + CLR. Conditions: HEK293S, untreated, percentage of maximal cAMP with 100 μM forskolin, mean ± S.E., n = 5. On the procedure:
as §1, §2
Data analysis for cAMP assays was performed in GraphPad Prism 6.0f (San Diego, CA). […] These values were then used to quantify signaling bias as change in log (τ/Ka) relative to the natural cognate ligand for the respective receptor ([41]). […] Statistical differences were analyzed using one-way ANOVA or Student's t test as appropriate with post hoc Bonferroni's or Dunnett's multiple comparisons, and p < 0.05 was considered significant. […] To quantitate the ligand-dependent response in the yeast system, a strain lacking GPA1 (MMY11), grown in rich medium, was used as a standard ([72]). […]

T2 sequence (Q16602 23-461): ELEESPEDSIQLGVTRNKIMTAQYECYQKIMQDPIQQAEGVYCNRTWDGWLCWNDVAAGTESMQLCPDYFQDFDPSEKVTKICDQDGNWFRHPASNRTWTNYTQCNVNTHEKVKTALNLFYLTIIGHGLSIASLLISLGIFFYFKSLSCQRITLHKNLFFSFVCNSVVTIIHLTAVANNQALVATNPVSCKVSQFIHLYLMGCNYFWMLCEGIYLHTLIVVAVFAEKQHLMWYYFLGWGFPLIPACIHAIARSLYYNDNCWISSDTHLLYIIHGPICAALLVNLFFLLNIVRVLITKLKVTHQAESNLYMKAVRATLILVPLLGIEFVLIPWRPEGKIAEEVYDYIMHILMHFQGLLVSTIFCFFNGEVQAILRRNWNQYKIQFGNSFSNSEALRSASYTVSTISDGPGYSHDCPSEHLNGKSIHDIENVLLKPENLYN
T2 sequence (O60895 43-175): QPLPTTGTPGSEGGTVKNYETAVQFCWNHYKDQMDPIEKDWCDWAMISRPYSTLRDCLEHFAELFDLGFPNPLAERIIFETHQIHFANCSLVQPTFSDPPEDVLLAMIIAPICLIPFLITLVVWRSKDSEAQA
T1 sequence (Q16602 23-461): as the sequence (Q16602 23-461) above
T1 sequence (O60896 24-148): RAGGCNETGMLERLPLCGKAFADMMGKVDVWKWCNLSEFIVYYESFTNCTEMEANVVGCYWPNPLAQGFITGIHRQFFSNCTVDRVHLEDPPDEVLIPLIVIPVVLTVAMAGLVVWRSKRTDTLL
T3 sequence (Q16602 23-461): as the sequence (Q16602 23-461) above
T3 sequence (O60894 27-148): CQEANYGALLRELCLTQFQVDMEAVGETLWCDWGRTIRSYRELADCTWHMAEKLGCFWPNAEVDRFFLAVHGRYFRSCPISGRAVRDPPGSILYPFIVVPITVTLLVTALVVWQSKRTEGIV

In the case of `CSCC[C@H](NC(=O)[C@H](CC(C)C)NC(=O)[C@H](CCC(N)=O)NC(=O)[C@H](Cc1c[nH]c2ccccc12)NC(=O)[C@H](CC(C)C)NC(=O)[C@H](CCCNC(=N)N)NC(=O)[C@H](Cc1c[nH]cn1)NC(=O)[C@H](CO)NC(=O)[C@H](CC(C)C)NC(=O)[C@H](CC(N)=O)NC(=O)[C@H](CCC(N)=O)NC(=O)[C@@H](NC(=O)[C@H](CCC(N)=O)NC(=O)[C@@H]1CSSC[C@H](NC(=O)CNC(=O)[C@@H](NC(=O)[C@H](CCCNC(=N)N)NC(=O)[C@H](CC(C)C)NC(=O)[C@H](CC(C)C)NC(=O)[C@H](CCC(N)=O)NC(=O)[C@H](C)NC(=O)[C@H](CCC(N)=O)NC(=O)[C@@H](N)[C@@H](C)O)C(C)C)C(=O)N[C@@H](C(C)C)C(=O)N[C@@H](CC(C)C)C(=O)NCC(=O)N[C@@H]([C@@H](C)O)C(=O)N1)C(C)C)C(=O)NCC(=O)N1CCC[C@H]1C(=O)N[C@@H](C)C(=O)NCC(=O)N[C@@H](CCCNC(=N)N)C(=O)N[C@@H](CCC(N)=O)C(=O)N[C@@H](CC(=O)O)C(=O)N[C@@H](CO)C(=O)N[C@@H](C)C(=O)N1CCC[C@H]1C(=O)N[C@H](C(=O)N[C@@H](CC(=O)O)C(=O)N1CCC[C@H]1C(=O)N[C@@H](CO)C(=O)N[C@@H](CO)C(=O)N1CCC[C@H]1C(=O)N[C@@H](Cc1c[nH]cn1)C(=O)N[C@@H](CO)C(=O)N[C@@H](Cc1ccc(O)cc1)C(N)=O)C(C)C` [AM2, adrenomedullin 2], the Emax on RAMP3-CLR (AM2 receptor) came to 15.7 ± 2.1%; at RAMP2-CLR (AM1 receptor) (HEK293, PTX treated (200 ng/ml, 16 h), percentage of maximal cAMP with 100 μM forskolin in presence of PTX, n = 6 (Table 3)), 56 ± 2.2%; on RAMP2-CLR (AM1 receptor) (HEK293, percentage of maximal cAMP with 100 μM forskolin, HEK-293, 30 min, n = 8 (Table 2)) it was 34.1 ± 4%; on RAMP2-CLR (AM1 receptor) (HEK293, untreated, percentage of maximal cAMP with 100 μM forskolin in presence of PTX, n = 9 (Table 3)) it was 36.6 ± 3.5%.
As to `CC[C@H](C)[C@H](NC(=O)[C@H](CCC(N)=O)NC(=O)[C@H](Cc1c[nH]cn1)NC(=O)[C@H](C)NC(=O)[C@H](CC(C)C)NC(=O)[C@H](CCCCN)NC(=O)[C@H](CCC(N)=O)NC(=O)[C@@H](NC(=O)[C@@H](NC(=O)[C@@H]1CSSC[C@H](NC(=O)CNC(=O)[C@H](Cc2ccccc2)NC(=O)[C@H](CO)NC(=O)[C@H](CCCNC(=N)N)NC(=O)[C@H](CC(C)C)NC(=O)CNC(=O)[C@H](CCC(N)=O)NC(=O)[C@H](Cc2ccccc2)NC(=O)[C@H](CC(N)=O)NC(=O)[C@H](CC(N)=O)NC(=O)[C@H](CCSC)NC(=O)[C@H](CO)NC(=O)[C@H](CCC(N)=O)NC(=O)[C@H](CCCNC(=N)N)NC(=O)[C@@H](N)Cc2ccc(O)cc2)C(=O)N[C@@H](CCCNC(=N)N)C(=O)N[C@@H](Cc2ccccc2)C(=O)NCC(=O)N[C@@H]([C@@H](C)O)C(=O)N1)[C@@H](C)O)C(C)C)C(=O)N[C@@H](Cc1ccc(O)cc1)C(=O)N[C@@H](CCC(N)=O)C(=O)N[C@@H](Cc1ccccc1)C(=O)N[C@H](C(=O)N[C@@H](CC(=O)O)C(=O)N[C@@H](CCCCN)C(=O)N[C@@H](CC(=O)O)C(=O)N[C@@H](CCCCN)C(=O)N[C@@H](CC(=O)O)C(=O)N[C@@H](CC(N)=O)C(=O)N[C@H](C(=O)N[C@@H](C)C(=O)N1CCC[C@H]1C(=O)N[C@@H](CCCNC(=N)N)C(=O)N[C@@H](CO)C(=O)N[C@@H](CCCCN)C(=O)N[C@H](C(=O)N[C@@H](CO)C(=O)N1CCC[C@H]1C(=O)N[C@@H](CCC(N)=O)C(=O)NCC(=O)N[C@@H](Cc1ccc(O)cc1)C(N)=O)[C@@H](C)CC)C(C)C)[C@@H](C)O` [AM, adrenomedullin], the figures for the Emax (at RAMP3-CLR (AM2 receptor); in test [1]) were 26.7 ± 1.8% and 60 ± 3.1%, respectively.
